Results as given in patent publication US20180273970A1, “PLASMID, TRANSFORMED PLANT CELL AND TRANSGENIC PLANT COMPRISING THE SAME, AND METHODS FOR PREPARING A TRANSGENIC PLANT AND FOR INCREASING YIELD OF A PLANT UNDER ABIOTIC STRESSES” (Academia Sinica, priority 2014, published 2018).

Columns and labels:
αAmy3 SRC promoter = assay: Rice embryo transient expression assay, SRC-35Smp:Luc reporter (luciferase); format: cell-based; details: rice embryos, 1 μM ABA or 50 mM sorbitol, 24 h
Protocol: FIG. 3. The highly conserved GKSKSF domain (KSD) is essential for SKINs to antagonize the function of SnRK1A. Rice embryos were transfected with plasmids, incubated in medium with 100 mM glucose (+S) or without glucose (−S) for 24 h, and assayed for luciferase activity. The luciferase activity in rice embryos bombarded with the SRC-35S mp-Luc construct only and in +S medium was set to 1×, and other values were calculated relative to this value. Error bars indicate the SE for three replicate experiments. (A) Plasmid constructs. (B) Rice embryos were co-transfected with effector Ubi:SnRK1A, Ubi:SKIN1 or Ubi:SKIN(Ri) alone and reporter SRC-35Smp:Luc, or co-transfected with effectors Ubi:SnRK1A and Ubi:SKIN or Ubi:SKIN(Ri) and reporter SRC-35Smp:Luc. (C) Total cellular proteins were extracted from rice embryos transfected with Ubi:SnRK1A, Ubi:SKIN or Ubi:SnRK1A and Ubi:SKIN by particle bombardment and subjected to Western blot analysis using antibodies against SnRK1A and the HA tag fused to at the N-terminus of SKINs. (D) Rice embryos were co-transfected with effectors Ubi:SnRK1A and Ubi:SKIN1 (wild-type or truncated) and reporter SRC-35Smp:Luc. (E) Rice embryos were co-transfected with effectors Ubi:SnRK1A and Ubi:SKIN (wild-type, KSD deleted, or KSD replaced with 6 Ala) and reporter SRC-35Smp:Luc.
FIG. 21. ABA and sorbitol suppress the function of SnRK1A in activation of αAmy3 SRC promoter. Rice embryos and barley aleurones were transfected with reporter SRC-35Smp:Luc with or without effectors, incubated with or without ABA for 24 h, and assayed for luciferase activity. The luciferase activity in embryos or aleurones bombarded with the SRC-35S mp-Luc construct only and in +S medium was set to 1×, and other values were calculated relative to this value. Error bars indicate the SE for three replicate experiments. (A) Plasmid constructs. (B) Barley aleurones were transfected with effector Ubi:SnRK1A, Ubi:SKIN1 or Ubi:SKIN(Ri) alone and reporter SRC-35Smp:Luc, or co-transfected with effectors Ubi:SnRK1A and Ubi:SKIN or Ubi:SKIN(Ri) and reporter SRC-35Smp:Luc. (C) Rice embryos (upper panel) were transfected with or without Ubi:SnRK1A and incubated with or without 1 μM ABA or 50 mM sorbitol, and barley aleurones (lower panel) were transfected with or without Ubi:SnRK1A and incubated with 5 μM ABA or 400 mM sorbitol.
Rice embryos were prepared for particle bombardment as described (Chen et al., 2006). The rice embryos were bombarded with reporter, effectors and internal control at a ratio of 4:2:1 for single effector or 4:2:2:1 for two effectors. The internal control (Ubi::GUS) was used to normalize the reporter enzyme activity because different transformation efficiency might occur in each independent experiment. Bombarded rice embryos were divided into two halves, with half being incubated in MS liquid medium containing 100 mM Glc, and the other half grown in MS liquid containing 100 mM mannitol, for 24 h. Total proteins were extracted for embryos with a cell lysis buffer [0.1 M K-phosphate, pH 7.8, 1 mM EDTA, 10% glycerol, 1% triton X-100, and 7 mM β-mercaptoethanol]. GUS assay buffer [0.1 M Na-phosphate, 20 mM EDTA, 0.2% sarcosine, 0.2% Triton X-100, and 20 mM β-mercaptoethanol] was used for GUS activity assay. The activity assay of GUS and luciferase were described elsewhere (Lu et al., 1998). All bombardments were repeated at least three times.

[1] = test system: interaction between SnRK1A and SKINs; assay: Rice embryo GAL4-UAS two-hybrid assay (luciferase); format: cell-based; details: rice embryos, −S medium containing 1 μM ABA
Protocol: FIG. 2. The N-terminus of SKIN interacts with the kinase domain of SnRK1A. For the GAL4-UAS two-hybrid assay, rice embryos were co-transfected with effector and reporter plasmids, incubated in −S medium for 24 h, and assayed for luciferase activity. The luciferase activity in rice embryos bombarded with effectors Ubi:GAD, Ubi:GBD and reporter 5XUAS-35S mp:Luc was set to 1×, and other values were calculated relative to this value. Error bars indicate the SE for three replicate experiments. Significance levels: * p<0.1, ** p<0.05. The Y axis indicates the relative luciferase activity with different constructs. (A) Plasmid constructs. (B) Rice embryos were co-transfected with effectors Ubi:GAD-SnRK1A and Ubi:GBD-SKIN (wild type or truncated) and reporter 5XUAS-35S mp:Luc. (C) Rice embryos were co-transfected with effectors Ubi:GAD-SnRK1A [wild type, kinase domain (KD) or regulatory (RD)], Ubi:GBD-SKIN and reporter 5XUAS-35S mp:Luc. (D) Rice embryos were co-transfected with effectors Ubi:GAD-SnRK1A and Ubi:GBD-SKIN and reporter 5XUAS-35S mp:Luc, and incubated in −S medium containing 1 μM ABA.
Rice embryos were prepared for particle bombardment as described (Chen et al., 2006). The rice embryos were bombarded with reporter, effectors and internal control at a ratio of 4:2:1 for single effector or 4:2:2:1 for two effectors. […]

Compound: CC1=CC(=O)CC(C)(C)[C@@]1(O)/C=C/C(C)=C\C(=O)O [ABA, abscisic acid]
- Effect on αAmy3 SRC promoter (luciferase activity), alone and SnRK1A-activated (αAmy3 SRC promoter): suppressed
- Effect on the interaction between SnRK1A and SKINs [1]: enhanced
